Measurements taken from patent US20090041806A1, “USE OF PRODRUGS OF GABA ANALOGS, ANTISPASTICITY AGENTS, AND PRODRUGS OF GABA B RECEPTOR AGONISTS FOR TREATING SPASTICITY” (XenoPort, Inc., priority 2007, published 2009).

Assays:
[1] = Randomized, crossover, fed/fasted single-dose pharmacokinetic study of oral sustained release tablets of compound (7) in healthy adult subjects; conditions: for AUC of compound (7) in blood as percent of the corresponding AUC of gabapentin in blood / maximum intact prodrug concentration as percent of the corresponding peak gabapentin concentration: oral tablets
Protocol: A randomized, crossover, fed/fasted single-dose study of the safety, tolerability, and pharmacokinetics of oral administration of 1-{[α-isobutanoyloxyethoxy)carbonyl]aminomethyl}-1-cyclohexane acetic acid (7) in healthy adult subjects was conducted. The oral sustained release dosage form of Example 4 was used in this study. The study was designed to evaluate the performance of this formulation in humans in comparison with the commercial gabapentin capsule formulation (Neurontin®, Pfizer). Twelve healthy adult volunteers (7 males and 5 females) participated in the study. Mean body weight was 75.6 kg. All subjects received two different treatments in a random order with a one-week washout between treatments. The two treatments were: a single oral dose of Example 4 tablets (2×600 mg) after an overnight fast; and a single oral dose of Example 4 tablets (2×600 mg) after a high fat breakfast.
Blood and plasma samples were collected from all subjects prior to dosing, and at 0.5, 1, 1.5, 2, 3, 4, 6, 8, 12, 18, 24, and 36 hours after dosing. Urine samples were collected from all subjects prior to dosing, and complete urine output was obtained at the 0-4 h, 4-8 h, 8-12 h, 12-18 h, 18-24 h, and 24-36 h intervals after dosing. Blood samples were quenched immediately with methanol and stored frozen at […] Sample aliquots were prepared for analysis of gabapentin and compound (7) using sensitive and specific LC/MS/MS methods.

[2] = Uptake of gabapentin following intracolonic administration of gabapentin or gabapentin prodrugs in rats; assay type: in vivo; conditions: rat, dose equivalent to 25 mg gabapentin per kg
Protocol: Sustained release oral dosage forms, which release drug slowly over periods of 6-24 hours, generally release a significant proportion of the dose within the colon. […] This experiment was conducted to assess the suitability of gabapentin prodrugs for use in oral sustained release dosage forms.
Rats were obtained commercially and were pre-cannulated in the both the ascending colon and the jugular vein. Animals were conscious at the time of the experiment. All animals were fasted overnight and until 4 hours post-dosing. […]
were administered as a solution (in water or PEG 400) directly into the colon via the cannula at a dose equivalent to 25 mg of gabapentin per kg. […] Blood samples were analyzed as described below. […]
were used. […] The peaks were integrated using Analyst 1.1 quantitation software.

[3] = cited from earlier work
[4] = Uptake of R-baclofen following oral administration of R-baclofen prodrugs to cynomolgus monkeys; conditions: cynomolgus monkey, in vivo
Protocol: (5 mg baclofen-eq/kg) were administered by oral gavage to groups of four male cynomolgus monkeys as either an aqueous solution or suspension in 0.5% methylcellulose/0.1% Tween-80 respectively. […] The oral bioavailability of both prodrugs: • (sodium 4-{[(1S)-isobutanoyloxyisobutoxy]carbonylamino}-(3R)-(4-chlorophenyl)-butanoate; and • 4-{[(1S)-isobutanoyloxyisobutoxy]carbonylamino}-(3R)-(4-chlorophenyl)-butanoic acid;

[5] = oral baclofen; cited from earlier work
[6] = oral; 2 mg t.i.d. R-baclofen equivalent to 10 mg t.i.d. racemic baclofen; cited from earlier work

CC(OC(=O)NCC1(CC(=O)O)CCCCC1)OC(=O)C(C)C (stereo not drawn) [compound (7), 1-{[(α-isobutanoyloxyethoxy)carbonyl]aminomethyl}-1-cyclohexane acetic acid]
maximum concentration of intact compound (7) in blood ([1]; human, in vivo, po): 0.040 µg/mL | AUC of compound (7) in blood as percent of the corresponding AUC of gabapentin in blood ([1]; fasted subjects): 0.3% | maximum intact prodrug concentration as percent of the corresponding peak gabapentin concentration ([1]; fasted subjects): approximately 1.0% | AUC of compound (7) in blood as percent of the corresponding AUC of gabapentin in blood ([1]; fed subjects): less than 0.1% | maximum intact prodrug concentration as percent of the corresponding peak gabapentin concentration ([1]; fed subjects): approximately 0.3% | area under the gabapentin plasma concentration vs. time curve (AUC) relative to colonic administration of gabapentin itself [2]: greater than 10 fold | maximum plasma concentration of gabapentin (Cmax) relative to colonic administration of gabapentin itself [2]: greater than 10 fold

NCC1(CC(=O)O)CCCCC1 [gabapentin]
typical Tmax of immediate release gabapentin [3]: 2 to 4 h

CC(C)C(=O)O[C@@H](OC(=O)NC[C@H](CC(=O)[O-])c1ccc(Cl)cc1)C(C)C.[Na+] [sodium 4-{[(1S)-isobutanoyloxyisobutoxy]carbonylamino}-(3R)-(4-chlorophenyl)-butanoate]
oral bioavailability as R-baclofen [4]: greater than 80%

NCC(CC(=O)O)c1ccc(Cl)cc1 (racemic) [Baclofen, (±)-4-amino-3-(4-chlorophenyl)butanoic acid]
elimination half-life [5]: 3 to 4 h

NC[C@H](CC(=O)O)c1ccc(Cl)cc1 [R-baclofen, R-(−)-baclofen]
potency of orally administered R-baclofen relative to orally administered racemic baclofen [6]: about 5 fold
